Source: paper PMC3188330 (2011)

Assays:
UGT1A10 [1] = biological target: T1, UGT1A10 (Homo sapiens, UniProt Q9HAW8); experiment: glucuronidation rate at […]; format: cell-based
T1 sequence (Q9HAW8 26-530): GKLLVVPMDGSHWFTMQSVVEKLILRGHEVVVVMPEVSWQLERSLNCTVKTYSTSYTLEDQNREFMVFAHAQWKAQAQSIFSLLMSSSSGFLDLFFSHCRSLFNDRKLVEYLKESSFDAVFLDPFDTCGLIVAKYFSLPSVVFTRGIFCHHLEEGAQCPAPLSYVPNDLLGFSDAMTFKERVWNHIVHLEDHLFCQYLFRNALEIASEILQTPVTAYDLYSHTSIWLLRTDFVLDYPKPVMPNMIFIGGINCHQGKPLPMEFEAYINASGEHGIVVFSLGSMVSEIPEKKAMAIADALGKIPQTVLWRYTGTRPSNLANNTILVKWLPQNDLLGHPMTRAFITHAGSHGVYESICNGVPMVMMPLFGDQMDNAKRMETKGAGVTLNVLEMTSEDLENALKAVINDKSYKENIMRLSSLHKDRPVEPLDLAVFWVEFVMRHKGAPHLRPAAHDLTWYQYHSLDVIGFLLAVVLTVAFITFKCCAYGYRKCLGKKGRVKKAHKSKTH

UGT1A10 [2] = biological target: T1, UGT1A10; experiment: glucuronidation rate at […]; format: cell-based; remark: listed apart in the source

SMILES: Oc1cccc2ccccc12 [1-naphthol]
- glucuronidation rate at 100 μM (HPLC) (UGT1A10 [1]): F93L catalyzed 1-naphthol glucuronidation at about twice the rate of the control UGT1A10

SMILES: COc1cc2ccc(=O)oc2cc1O [scopoletin]
- glucuronidation rate at 500 μM (HPLC) (UGT1A10 [2]): majority of the mutants were higher than control, up to six fold the (normalized) rate of UGT1A10
